Test results as given in publication PMC6868012, “Discovery of novel potential selective HDAC8 inhibitors by combine ligand-based, structure-based virtual screening and in-vitro biological evaluation” (Scientific Reports, 2019).
Read-outs that look alike come from different tables or passages of the source.

What was measured:
HDAC8 [1] = target: T1, HDAC8 (Homo sapiens, UniProt Q9BY41); conditions: cited from earlier work; for IC50 / pIC50: Table S1, external validation set; for Activity (experimental pIC50): Table S2, training and test set molecules, converted from literature IC50
T1 sequence (Q9BY41 1-377): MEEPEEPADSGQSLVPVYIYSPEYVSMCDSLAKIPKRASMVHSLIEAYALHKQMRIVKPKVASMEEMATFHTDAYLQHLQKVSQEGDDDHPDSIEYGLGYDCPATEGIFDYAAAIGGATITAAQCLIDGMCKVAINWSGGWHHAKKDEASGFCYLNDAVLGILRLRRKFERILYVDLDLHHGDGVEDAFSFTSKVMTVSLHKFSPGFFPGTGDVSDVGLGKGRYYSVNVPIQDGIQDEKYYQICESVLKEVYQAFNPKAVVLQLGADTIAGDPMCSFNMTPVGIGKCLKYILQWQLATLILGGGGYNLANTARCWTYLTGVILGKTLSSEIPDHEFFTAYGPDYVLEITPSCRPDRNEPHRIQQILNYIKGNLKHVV

HDAC6 = target: T2, HDAC6 (Homo sapiens, UniProt Q9UBN7); assay: HDAC6 activity assay (fluorometric, Sigma CS1010, Boc-Lys(Ac)-AMC); type: biochemical; conditions: read-out: HDAC-6 (IC50 in nM)
T2 sequence (Q9UBN7 1-1215): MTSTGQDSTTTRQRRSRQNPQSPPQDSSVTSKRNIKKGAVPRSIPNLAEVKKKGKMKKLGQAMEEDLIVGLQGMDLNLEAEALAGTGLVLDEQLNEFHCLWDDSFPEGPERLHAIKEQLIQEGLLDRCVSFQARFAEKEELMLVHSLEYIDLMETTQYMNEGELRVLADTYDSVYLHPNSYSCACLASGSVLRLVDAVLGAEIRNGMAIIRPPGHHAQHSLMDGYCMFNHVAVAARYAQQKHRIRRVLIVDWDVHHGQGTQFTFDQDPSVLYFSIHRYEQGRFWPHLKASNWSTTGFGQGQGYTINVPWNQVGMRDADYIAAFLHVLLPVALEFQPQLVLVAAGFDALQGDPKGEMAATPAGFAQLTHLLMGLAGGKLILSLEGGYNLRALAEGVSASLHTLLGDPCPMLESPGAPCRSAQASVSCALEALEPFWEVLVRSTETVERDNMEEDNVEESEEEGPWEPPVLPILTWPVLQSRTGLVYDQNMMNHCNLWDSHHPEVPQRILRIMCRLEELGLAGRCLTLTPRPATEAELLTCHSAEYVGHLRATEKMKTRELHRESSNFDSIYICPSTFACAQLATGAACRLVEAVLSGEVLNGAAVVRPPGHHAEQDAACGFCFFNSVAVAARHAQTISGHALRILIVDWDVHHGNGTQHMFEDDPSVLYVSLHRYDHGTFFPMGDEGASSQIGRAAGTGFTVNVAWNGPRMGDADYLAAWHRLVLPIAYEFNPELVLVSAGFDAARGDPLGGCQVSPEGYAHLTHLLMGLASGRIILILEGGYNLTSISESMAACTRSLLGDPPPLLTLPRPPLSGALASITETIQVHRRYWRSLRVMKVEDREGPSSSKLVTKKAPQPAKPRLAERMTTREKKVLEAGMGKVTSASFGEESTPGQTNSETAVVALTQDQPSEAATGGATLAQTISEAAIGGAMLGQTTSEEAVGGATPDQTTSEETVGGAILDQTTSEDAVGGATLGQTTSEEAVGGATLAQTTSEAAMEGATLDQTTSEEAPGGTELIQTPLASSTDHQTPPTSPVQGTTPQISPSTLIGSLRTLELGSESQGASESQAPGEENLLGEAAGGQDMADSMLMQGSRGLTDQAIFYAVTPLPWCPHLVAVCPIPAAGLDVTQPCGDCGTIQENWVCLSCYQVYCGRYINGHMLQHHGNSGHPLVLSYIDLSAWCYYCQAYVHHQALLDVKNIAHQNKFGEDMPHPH
Method: (§1) HDAC 6 and 8 activities were measured according to the manufacturer’s protocol from Sigma (Cat# CS1010). […] Trichostatin A was used as a reference inhibitor. The Perkin Elmer multimode reader, model-Enspire 2300 was used for fluorescence plate reader.

HDAC8 [2] = target: T1, HDAC8; assay: HDAC8 activity assay (fluorometric, Sigma CS1010, Boc-Lys(Ac)-AMC); type: biochemical; conditions: read-out: HDAC-8 (IC50 in nM)
Method: as §1

Compound: O=C(/C=C/c1ccc2c(c1)nc(-c1ccccn1)n2C[C@H](O)CO)NO [compound 17]
- IC50 (HDAC8 [1]): 1400 nM
- pIC50 (HDAC8 [1]): 5.854
- Activity (experimental pIC50) (HDAC8 [1]): 6.463

Compound: CC(=O)SCC(=O)CCCCCCC(=O)Nc1ccccc1 [compound 11]
- IC50 (HDAC8 [1]): 700 nM
- pIC50 (HDAC8 [1]): 6.155

Compound: Cc1ccc(S(=O)(=O)NC(=O)NCc2ccc(C(=O)NO)cc2)cc1 [compound 6]
- Activity (experimental pIC50) (HDAC8 [1]): 7.310

Compound: CC(/C=C/C(=O)NO)=C\C(C)Cc1ccc(N(C)C)cc1 (stereo not shown) [compound 20]
- IC50 (HDAC8 [1]): 220 nM
- pIC50 (HDAC8 [1]): 6.658
- Activity (experimental pIC50) (HDAC8 [1]): 6.398

Compound: O=C(Cc1ccc(-c2csc(NC(=O)c3cnc([C@H]4CCCNC4)s3)n2)s1)NO [compound 4]
- Activity (experimental pIC50) (HDAC8 [1]): 7.398

Compound: O=C(/C=C/c1ccc2c(c1)ncn2Cc1ccccc1)NO [compound 21]
- IC50 (HDAC8 [1]): 52 nM
- pIC50 (HDAC8 [1]): 7.284

Compound: O=C(Cc1ccccc1)Nc1nc(-c2cc(C(=O)NO)no2)cs1 [compound 16]
- IC50 (HDAC8 [1]): 100 nM
- pIC50 (HDAC8 [1]): 7
- Activity (experimental pIC50) (HDAC8 [1]): 6.469

Compound: CN(C)CC(C)(C)Cn1c(CCc2ccccc2)nc2cc(/C=C/C(=O)NO)ccc21 [compound 19]
- IC50 (HDAC8 [1]): 120 nM
- pIC50 (HDAC8 [1]): 6.921

Compound: Cc1ccc(Cc2cn(C)c3cc(C(=O)NO)ccc23)cc1 [compound 2]
- Activity (experimental pIC50) (HDAC8 [1]): 7.620

Compound: O=C(Cc1ccc(-c2csc(NC(=O)c3ccn(CC4CCNCC4)c3-c3ccccc3)c2)s1)NO [compound 9]
- Activity (experimental pIC50) (HDAC8 [1]): 6.854

Compound: NC(=O)Cc1nc(-c2cc3cc(Cl)ccc3o2)cs1 [SD-04, 2-(4-(5-chlorobenzofuran-2-yl)thiazol-2-yl)acetamide]
- IC50 (HDAC6): > 100 nM
- IC50 (HDAC8 [2]): > 100 nM

Compound: CONC(=O)NCc1ccc2cc(OC)ccc2c1 [SD-05, 1-methoxy-3-((6-methoxynaphthalen-2-yl)methyl)urea]
- IC50 (HDAC6): 30.9 nM
- IC50 (HDAC8 [2]): 41.6 nM

Compound: O=C(CCCCCNC(=O)NC(=O)c1ccccc1)NO [compound 25]
- Activity (experimental pIC50) (HDAC8 [1]): 5.971

Compound: O=C(COc1ccccc1)Cc1nc(-c2ccc(C(=O)NO)s2)cs1 [compound 3]
- Activity (experimental pIC50) (HDAC8 [1]): 7.420

Compound: O=C(/C=C/c1ccc(CN(CCc2cc3ccccc3[nH]2)C(=O)NC(=O)c2ccccc2)cc1)NO [compound 13]
- IC50 (HDAC8 [1]): 15700 nM
- pIC50 (HDAC8 [1]): 4.804
- Activity (experimental pIC50) (HDAC8 [1]): 6.678

Compound: O=C(NO)c1ccc(CN2CCN(C(=O)NC(=O)c3ccccc3)CC2)cc1 [compound 22]
- IC50 (HDAC8 [1]): 29 nM
- pIC50 (HDAC8 [1]): 7.538
- Activity (experimental pIC50) (HDAC8 [1]): 6.337

Compound: O=C(/C=C/c1ccc2c(c1)nc(COCc1ccccc1)n2CCc1cccnc1)NO [compound 15]
- IC50 (HDAC8 [1]): 180 nM
- pIC50 (HDAC8 [1]): 6.745

Compound: O=C(Cc1cccc(NC(=O)NC(=O)c2ccccc2)c1)NO [compound 10]
- IC50 (HDAC8 [1]): 66000 nM
- pIC50 (HDAC8 [1]): 4.18
- Activity (experimental pIC50) (HDAC8 [1]): 6.824

Compound: COC(=O)c1ccc(Oc2coc3cc(OCC(N)=O)ccc3c2=O)cc1 [SD-03, methyl 4-((7-(2-amino-2-oxoethoxy)-4-oxo-4H-chromen-3-yl)oxy)benzoate]
- IC50 (HDAC6): > 100 nM
- IC50 (HDAC8 [2]): > 100 nM

Compound: CN(C)Cc1c(C(=O)NCCOc2ccc(C(=O)NO)cc2)oc2ccccc12 [compound 12]
- IC50 (HDAC8 [1]): 19700 nM
- pIC50 (HDAC8 [1]): 4.706

Compound: O=C(NO)c1ccc(-c2cccc(CNCCc3ccccn3)c2)s1 [compound 7]
- Activity (experimental pIC50) (HDAC8 [1]): 7.301

Compound: O=C(/C=C/c1ccc(CN(CCN2CCCCC2)C(=O)NC(=O)c2ccccc2)cc1)NO [compound 14]
- IC50 (HDAC8 [1]): 350 nM
- pIC50 (HDAC8 [1]): 6.456
- Activity (experimental pIC50) (HDAC8 [1]): 6.638

Compound: O=C(Nc1cccc(-c2cc(C(=O)NO)n[nH]2)c1)c1ccccc1 [compound 18]
- IC50 (HDAC8 [1]): 150 nM
- pIC50 (HDAC8 [1]): 6.824
- Activity (experimental pIC50) (HDAC8 [1]): 6.456

Compound: Cc1ccc(S(=O)(=O)NC(=O)Nc2cccc(/C=C/C(=O)NO)c2)cc1 [compound 5]
- Activity (experimental pIC50) (HDAC8 [1]): 7.398

Compound: COc1cccc(-c2nc(CNc3ccccc3SCC(N)=O)cs2)c1 [SD-01, 2-((2-(((2-(3-methoxyphenyl)thiazol-4-yl)methyl)amino)phenyl)thio)acetamide]
- IC50 (HDAC6): > 100 nM
- IC50 (HDAC8 [2]): 9 nM

Compound: C[C@H](N)C(=O)NCc1nnc(-c2ccccc2)o1 [compound 31]
- Activity (experimental pIC50) (HDAC8 [1]): 7.009

Compound: O=C(NO)c1ccc(NC(=S)NN=C(c2ccccc2)c2ccccc2)cc1 [compound 30]
- Activity (experimental pIC50) (HDAC8 [1]): 4.633
